# Laboratory results as given in patent US20240237690A1, “Licorice Compounds and Their Use as Flavor Modifiers” (Firmenich SA, priority 2021, published 2024).
# Columns and labels:
# Assay type in all cases: in vivo, human
# [1] = tested on: sweet taste of water solution containing 4% sucrose; assay: Sensory testing by trained taste panel: sweet taste, sucrose reference; settings: mean of 20 trained panelists, scale −5 to 5; compound at 10 or 40 ppm; 0 = reference water solution containing 4% sucrose
# Description: (§1) A panel consisted in 20 trained taste panelists evaluated samples of each of Compounds 101-106 at 10 or 40 ppm for taste properties (sweet, licorice, lingering, bitter or astringent) on a scale of −5 to 5 (−5 to −4 denoted strong masking effect, −4 to −3 denoted moderate masking effect, −3 to −2 denoted masking effect, −2 to 0 denoted weak masking effect, while 5 to 4 denoted strong enhancing effect, 4 to 3 denoted moderate enhancing effect, 3 to 2 denoted enhancing effect, 2 to 0 denoted weak enhancing effect, 0 being equal to the intensity of a reference water solution containing 4% sucrose or 0.02% SG95 (>95% steviol glycosides) or 10 ppm mixture of Limonin, Naringin, and Normilin (for bitter and astringent). Note that ED and HED refers to eriodictyol or homoeriodictyol, respectively, at a concentration of 40 ppm.
# [2] = tested on: bitter taste of 10 ppm mixture of Limonin, Naringin, and Normilin; assay: Sensory testing by trained taste panel: bitter taste, citrus bitter mixture; settings: mean of 20 trained panelists, scale −5 to 5, compound at 10 or 40 ppm, ED at 40 ppm, 0 = reference 10 ppm mixture of Limonin
# Description: as §1
# [3] = tested on: lingering taste of 0.02% SG95 (>95% steviol glycosides); assay: Sensory testing by trained taste panel: lingering, SG95 reference; settings: mean of 20 trained panelists, scale −5 to 5; compound at 10 or 40 ppm; 0 = reference 0.02% SG95
# Description: as §1
# [4] = tested on: astringent taste of 10 ppm mixture of Limonin, Naringin, and Normilin; assay: Sensory testing by trained taste panel: astringent taste, citrus bitter mixture; settings: mean of 20 trained panelists, scale −5 to 5, compound at 10 or 40 ppm, ED at 40 ppm, 0 = reference 10 ppm mixture of Limonin
# Description: as §1
SMILES,Sweet (sucrose) [1],"Bitter (Limonin, Naringin, and Normilin) [2]",Lingering (SG95) [3],"Astringent (Limonin, Naringin, and Normilin) [4]"
"O=C1C[C@@H](c2ccc(O[C@@H]3O[C@H](CO)[C@@H](O)[C@H](O)[C@H]3O)cc2)Oc2cc(O)ccc21 [Compound 101, liquiritin]",Enhance (3 to 2 denoted enhancing effect),Mask (−3 to −2 denoted masking effect),–,–
"O=C1C[C@@H](c2ccc(O)cc2)Oc2cc(O)ccc21 [Compound 102, liquiritigenin]",–,Mask (−3 to −2 denoted masking effect),Mask (−3 to −2 denoted masking effect),Mask (−3 to −2 denoted masking effect)
"O=C(/C=C/c1ccc(O)cc1)c1ccc(O)cc1O [Compound 104, isoliquiritigenin]",Enhance (3 to 2 denoted enhancing effect),–,–,–
"O=C1C[C@@H](c2ccc(O)c(O)c2)Oc2cc(O)cc(O)c21 [ED, eriodictyol, reference compound]",–,Mask (−3 to −2 denoted masking effect),–,–
